Literature values in patent US7691599B2, “Mammalian genes involved in viral infection and tumor suppression” (Zirus, Inc., priority 2002, dated 2010).
Where two headings read alike, the source gives them in different places.

Tests used:
monoamine oxidase type A = target: T1, monoamine oxidase type A (Mus musculus, UniProt Q64133); conditions: transgenic mice with reduced glucocorticoid receptor function
T1 construct: from tissue; host or cells: whole animal: transgenic mice expressing antisense RNA against glucocorticoid receptor mRNA
T1 sequence (Q64133 1-526): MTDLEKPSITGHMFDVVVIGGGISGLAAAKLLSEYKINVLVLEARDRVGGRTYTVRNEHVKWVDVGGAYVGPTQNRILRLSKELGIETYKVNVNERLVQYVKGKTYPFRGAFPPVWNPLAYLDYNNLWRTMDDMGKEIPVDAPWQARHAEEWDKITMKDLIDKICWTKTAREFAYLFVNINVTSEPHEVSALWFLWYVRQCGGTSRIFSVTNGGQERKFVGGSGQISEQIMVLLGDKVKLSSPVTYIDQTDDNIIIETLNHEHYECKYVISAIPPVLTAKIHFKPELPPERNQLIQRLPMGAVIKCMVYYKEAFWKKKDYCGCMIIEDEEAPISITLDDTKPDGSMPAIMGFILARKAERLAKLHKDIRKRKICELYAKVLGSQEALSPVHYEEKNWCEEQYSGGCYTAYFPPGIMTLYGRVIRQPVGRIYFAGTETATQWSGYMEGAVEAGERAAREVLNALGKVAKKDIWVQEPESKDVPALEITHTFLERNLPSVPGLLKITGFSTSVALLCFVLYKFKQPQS

[1] = target: T2, I747T mutant NR3C1 (glucocorticoid receptor) (Homo sapiens, UniProt P04150, I747T)
T2 sequence (P04150 1-777 I747T): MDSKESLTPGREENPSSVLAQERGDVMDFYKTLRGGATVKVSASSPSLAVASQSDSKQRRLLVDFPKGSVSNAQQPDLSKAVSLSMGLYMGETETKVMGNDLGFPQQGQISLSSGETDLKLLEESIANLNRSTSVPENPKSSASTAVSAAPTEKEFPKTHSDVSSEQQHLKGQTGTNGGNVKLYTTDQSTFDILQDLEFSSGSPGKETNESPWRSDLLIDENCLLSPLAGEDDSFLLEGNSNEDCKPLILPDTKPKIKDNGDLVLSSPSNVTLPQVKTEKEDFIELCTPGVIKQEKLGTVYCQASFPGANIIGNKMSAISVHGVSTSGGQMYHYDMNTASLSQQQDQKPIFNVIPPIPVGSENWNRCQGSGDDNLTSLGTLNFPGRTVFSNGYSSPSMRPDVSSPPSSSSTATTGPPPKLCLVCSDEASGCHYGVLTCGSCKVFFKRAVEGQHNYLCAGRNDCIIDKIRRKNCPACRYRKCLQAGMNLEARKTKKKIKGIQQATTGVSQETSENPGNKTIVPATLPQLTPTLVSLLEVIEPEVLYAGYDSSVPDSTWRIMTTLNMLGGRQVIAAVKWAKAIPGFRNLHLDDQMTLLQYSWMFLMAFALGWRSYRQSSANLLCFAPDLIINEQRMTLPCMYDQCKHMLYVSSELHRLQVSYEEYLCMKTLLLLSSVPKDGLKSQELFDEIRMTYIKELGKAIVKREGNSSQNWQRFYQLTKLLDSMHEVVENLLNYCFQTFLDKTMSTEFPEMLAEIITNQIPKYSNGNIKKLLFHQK

[2] = system: mononuclear cell proliferation; conditions: whole blood, 3 h (P<<0.05)
[3] = for plasma concentration at 3 h: 3 h after single oral dose of 300 mg V11294A; for AUC(0, infinity) / t½ / Cmax: plasma; for AUC(0, infinity) / t½: single oral dose of 300 mg V11294A; for Cmax: single oral fasting dose of 300 mg V11294A, mean +/− s.d.
[4] = system: tumour necrosis factor (TNF) release in whole blood
ADAM 10 = target: T3, ADAM 10 (Bos taurus, UniProt Q10741); conditions: ADAM 10 purified from bovine spleen membranes
T3 construct: purified a protease with characteristics of TNFalpha convertase from bovine spleen membranes; from tissue; host or cells: bovine spleen membranes
T3 sequence (Q10741 214-748): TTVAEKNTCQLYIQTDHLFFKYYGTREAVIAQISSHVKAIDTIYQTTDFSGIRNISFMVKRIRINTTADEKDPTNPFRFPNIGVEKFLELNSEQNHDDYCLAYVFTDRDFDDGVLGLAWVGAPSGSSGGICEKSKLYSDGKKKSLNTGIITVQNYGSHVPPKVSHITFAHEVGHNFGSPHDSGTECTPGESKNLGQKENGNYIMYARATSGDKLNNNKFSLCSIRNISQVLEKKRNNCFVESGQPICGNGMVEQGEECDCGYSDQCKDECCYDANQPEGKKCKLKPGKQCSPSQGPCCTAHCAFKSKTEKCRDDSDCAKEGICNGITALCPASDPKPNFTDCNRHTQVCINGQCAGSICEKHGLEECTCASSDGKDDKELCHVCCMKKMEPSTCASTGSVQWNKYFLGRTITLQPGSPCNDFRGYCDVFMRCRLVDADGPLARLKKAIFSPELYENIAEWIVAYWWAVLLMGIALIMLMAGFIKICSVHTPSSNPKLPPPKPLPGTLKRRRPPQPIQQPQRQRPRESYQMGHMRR

| plasma concentration at 3 h [3] | AUC(0, infinity) [3] | t½ [3] | Cmax ([3]; healthy volunteers) | SMILES | transactivation by I747T mutant NR3C1 [1] | also measured |
| --- | --- | --- | --- | --- | --- | --- |
|  |  |  |  | O=C(NCCN1CCOCC1)c1ccc(Cl)cc1 [moclobemide] |  | behavioral deficits (monoamine oxidase type A): reversed the behavioral deficits |
|  |  |  |  | C[C@]12CCC(=O)C=C1CC[C@@H]1[C@@H]2[C@@H](O)C[C@@]2(C)[C@H]1CC[C@]2(O)C(=O)CO [cortisol] | completely inactive |  |
| 1300 ± 330 ng/mL | 18100 ± 6100 ng·h/mL | 9.7 ± 3.9 h | 1398 ± 298 ng/mL | CCNc1ncn(Cc2ccc(OC)c(OC3CCCC3)c2)c2nc(C(C)C)nc1-2.Cl [V11294A, 3-(3-cyclopentyloxy-4-methoxybenzyl)-6-ethylamino-8-isopropyl-3H purine hydrochloride] |  | PHA-induced proliferation [2]: inhibited; adverse reactions ([3]; single oral administration, 300 mg, healthy volunteers): No adverse reactions were noted; LPS-induced TNF release ([4]; 3 h post ingestion (P<<0.001)): significant reduction; LPS-induced TNF release ([4]; 24 h post ingestion (P<<0.05)): significant reduction; amount of TNF released in response to LPS ([4]; LPS 4 ng ml−1, whole blood, 3 h postdose (before 778+/−87, P=0.02)): 566 ± 72 pmol/mL |
|  |  |  |  | CC(C)C[C@H](NP(=O)(O)O[C@@H]1O[C@@H](C)[C@H](O)[C@@H](O)[C@H]1O)C(=O)N[C@@H](Cc1c[nH]c2ccccc12)C(=O)O [phosphoramidon] |  | sensitivity of the enzyme to inhibitor (ADAM 10): insensitive |
| 860 ± 300 ng/mL | 18600 ± 8500 ng·h/mL | 9.5 ± 1.7 h | 1000 ± 400 ng/mL | COc1ccc(Cn2cnc(N)c3nc(C(C)C)nc2-3)cc1OC1CCCC1 [V10332, 3-(3-cyclopentyloxy-4-methoxy-benzyl)-8-isopropyl-3H-purin-6-ylamine] |  |  |
|  |  |  |  | C[C@]12C[C@H](O)[C@H]3[C@@H](CCC4=CC(=O)CC[C@@]43C)[C@@H]1CC[C@@H]2C(=O)CO [corticosterone] | completely inactive |  |
